Test results from patent US20110021631A1, “Method of preparing stabilized pharmaceutical compositions comprising active ingredients susceptible to conversion to alternate polymorph forms” (LEK PHARMACEUTICALS D.D., priority 2004, published 2011).
Entries after “also recorded” stand apart in the source; their conditions may differ.

Columns and labels:
[1] = forms as named in WO 01/43723; cited from earlier work
[2] = Polymorph analysis by X-ray powder diffraction (XRPD) after wet granulation / mixing of pravastatin sodium form LEK; assay type: physicochemical
Experimental: References to 2Θ values are to those measured using CuKα radiation. Samples are measured on apparatus Siemens D-5000 by reflex technique at two conditions: • a. Samples with high amount of pravastatin sodium (more than 30%): CuKα radiation, range from 2° to 37° 2Θ, step 0.04° 2Θ, integration time 1 second, slots V20 and 0.6 mm. • b. Samples with low amount of pravastatin sodium (less than 30%): CuKα radiation, range from 3° to 12° 2Θ, step 0.04° 2Θ, integration time 15 second, slots V20 and 0.6 mm.

conversion on granulation with granulating liquid comprising a binder (PVP) ([2]; PVP in ethanol, in some experiments)	precrystallization of dry mixture ([2]; dry mixture of pravastatin sodium and microcrystalline cellulose, 2 hours at 60° C.)	stability of Lek form in wet granulation ([2]; mass ratio pravastatin sodium to microcrystalline cellulose higher or equal to 1:1 and pravastatin sodium to ethanol higher or equal to 1:1, preferably 1:0.5)	precrystallization in wet granulation ([2]; pravastatin sodium:microcrystalline cellulose = 1:0.5, pravastatin sodium and ethanol 1:0.4)	polymorph form in the presence of a high amount of microcrystalline cellulose and granulating liquid ([2]; wet granulation with ethanol)	SMILES	polymorph conversion by treating with alcohol [1]	conversion to another polymorph form on granulation with alcohol alone ([2]; alcohol (absolute ethanol or aqueous ethanol) as granulating liquid, absence of other ingredients)
					CC[C@H](C)C(=O)O[C@H]1C[C@H](O)C=C2C=C[C@H](C)[C@H](CC[C@@H](O)C[C@@H](O)CC(=O)O)[C@H]21 [pravastatin sodium form D, pravastatin sodium]	convert to forms A, H, H1, I, J, K	
partial conversion	does not cause any precrystallization	stable	no precrystallization occurs	precrystallizes to form D	CC[C@H](C)C(=O)O[C@H]1C[C@H](O)C=C2C=C[C@H](C)[C@H](CC[C@@H](O)C[C@@H](O)CC(=O)O)[C@H]21 [pravastatin sodium]		does not convert to any other polymorph form; also recorded: does not cause the precrystallization
